Target: T1, rabbit muscle glycogen phosphorylase b (RMGPb) (Oryctolagus cuniculus, UniProt P00489)
T1 construct: gene PYGM
T1 sequence (P00489 2-843): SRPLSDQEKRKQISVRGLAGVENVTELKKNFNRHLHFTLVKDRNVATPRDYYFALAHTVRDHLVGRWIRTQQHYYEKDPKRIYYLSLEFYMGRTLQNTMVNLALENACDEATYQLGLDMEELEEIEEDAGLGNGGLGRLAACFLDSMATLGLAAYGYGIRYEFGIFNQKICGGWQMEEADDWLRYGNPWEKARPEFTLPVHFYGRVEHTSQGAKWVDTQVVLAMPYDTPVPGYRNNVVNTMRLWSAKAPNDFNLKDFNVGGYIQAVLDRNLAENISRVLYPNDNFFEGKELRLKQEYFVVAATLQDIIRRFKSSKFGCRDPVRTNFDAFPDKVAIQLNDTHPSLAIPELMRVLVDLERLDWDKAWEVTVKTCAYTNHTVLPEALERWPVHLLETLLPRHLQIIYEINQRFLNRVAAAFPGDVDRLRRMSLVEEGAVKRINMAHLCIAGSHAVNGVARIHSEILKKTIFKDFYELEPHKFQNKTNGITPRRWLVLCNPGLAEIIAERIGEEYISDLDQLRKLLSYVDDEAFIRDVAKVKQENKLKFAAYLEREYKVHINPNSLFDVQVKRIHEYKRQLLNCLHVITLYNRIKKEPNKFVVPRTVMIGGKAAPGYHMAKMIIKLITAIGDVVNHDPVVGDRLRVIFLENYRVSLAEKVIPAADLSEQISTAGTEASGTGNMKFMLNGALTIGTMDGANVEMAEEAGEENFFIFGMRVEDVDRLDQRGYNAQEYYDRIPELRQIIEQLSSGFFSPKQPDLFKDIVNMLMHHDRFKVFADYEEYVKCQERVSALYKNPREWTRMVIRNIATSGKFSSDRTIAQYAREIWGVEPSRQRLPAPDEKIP
Assay: enzyme kinetics in the direction of glycogen synthesis with purified, recrystallized RMGPb ([…] AMP, […] glycogen)
Assay type: biochemical
Conditions: read-out: % inhibition at 1 mM

For `O=c1cc2n(c(=O)[nH]1)[C@]1(OC2)O[C@H](CO)[C@@H](O)[C@H](O)[C@H]1O` [4a, (3R,3′R,4′S,5′S,6′R)-3′,4′,5′-Trihydroxy-6′-(hydroxymethyl)-3′,4′,5′,6′-tetrahydrospiro[oxazolo[3,4-c]pyrimidine-3,2′-pyran]-5,7(1H,6H)-dione], the inhibition at 1000 µM was 26%.
`O=c1cc2n(c(=O)[nH]1)[C@@]1(OC2)O[C@H](CO)[C@@H](O)[C@H](O)[C@H]1O` [4b, (3S,3′R,4′S,5′S,6′R)-3′,4′,5′-Trihydroxy-6′-(hydroxymethyl)-3′,4′,5′,6′-tetrahydrospiro[oxazolo[3,4-c]pyrimidine-3,2′-pyran]-5,7(1H,6H)-dione] was tested, and the inhibition at 1000 µM was 35%.
